Read-outs that look alike come from different tables or passages of the source.
Legend:
[1] = test system: Barrett's esophagus tissue; assay: phase I/II trial of photodynamic therapy using HPPH in patients with Barrett's esophagus; type: in vivo, human; settings: 30 patients
Procedure: injecting HPPH in a physiologically compatible medium into a patient having Barrett's esophagus tissue to provide a dose level of 3 through 5 mg/m^2 of body surface area, preferably 3 through 4 mg/m^2 of body surface area,
waiting for a time period of 24 through 60 hours to permit preferential absorption of the
HPPH into Barrett's esophagus tissue, and exposing the Barrett's esophagus tissue to light at a wavelength of about 670±5 nm at an energy of from 75 to 200 Joules/cm, preferably 75 to 200 Joules/cm.
Injection of the HPPH is preferably accomplished intravenously usually over a time period of 0.75 to 3 hours in a physiologically compatible medium. The time period is functionally dependent upon rate of infusion and dose level desired. The concentration is preferably 0.5 through 1.5 mg/ml in medium and the medium is preferably 0.1% polysorbate 80, 2% ethyl alcohol and 5% glucose in normal saline.
Exposure is accomplished using a fiber optic carrying laser light emitted by a laser. The laser may be any suitable laser emitting light at the wavelength and energy desired, e.g. a dye or diode laser. Exposure may be adjusted by length of time of exposure and/or adjustment of light intensity.
Using the above parameters, a phase I/II trial using HPPH and a phase III trial using PHOTOFRIN™, the latter approved by the United States Food and Drug Administration, the following results for response of Barrett's esophagus were obtained.

Barrett's mucosa = settings: cited from earlier work; for Treatment response: CR, PDT + NdYAG thermal ablation: compilation of 1-3 PDT treatments + thermal ablation of small residual islands; for Complications: esophageal stricture / Treatment response: CR (no Barrett's esophagus tissue remained after treatment), PDT only: compilation of 1-3 PDT treatments; for Treatment response: CR (no Barrett's esophagus tissue remained after treatment), PDT only: porfimer sodium 2 mg/kg
[2] = only 1 PDT treatment, percent of patients
[3] = 100 patients, percent of patients
[4] = 100 patients, percent of patients, listed as porfimer sodium

Substance | Treatment response: patients with >90 to <100% ablation, PDT only ([1]; only 1 PDT treatment, does not include NdYAG thermal ablation) | Complications: esophageal stricture [1, 2] | Treatment response: CR (no Barrett's esophagus tissue remained after treatment), PDT only [1, 2] | Complications: sunburn ([1]; percent of patients) | Complete ablation of Barrett's mucosa (PDT only or with thermal ablation) (Barrett's mucosa; 100 patients, 2 mg/kg, 630 nm, 100 to 250 J/cm, percent of patients) | Treatment response: CR, PDT + NdYAG thermal ablation (Barrett's mucosa; [3]) | Treatment response: CR, PDT + NdYAG thermal ablation (Barrett's mucosa; [4]) | Complications: esophageal stricture (Barrett's mucosa; [3]) | Complications: esophageal stricture (Barrett's mucosa; [4]) | Treatment response: CR (no Barrett's esophagus tissue remained after treatment), PDT only (Barrett's mucosa; 100 patients, 630 nm, 100 to 250 J/cm, percent of patients) | Treatment response: CR (no Barrett's esophagus tissue remained after treatment), PDT only (Barrett's mucosa; 100 patients, 630 nm, 100 to 250 J/cm, percent of patients, listed as porfimer sodium) | Complications: sunburn (Barrett's mucosa; [3]) | replacement of Barrett's mucosa with normal esophageal mucosa (Barrett's mucosa; all 100 patients treated, 2 mg/kg, 630 nm, 100 to 250 J/cm, percent of mucosa)
3-(1-hexyloxy) ethyl-derivative of pyropheophorbide-a [HPPH] | 47% (>90 to <100% | 12% | 4% CR | <7% |  |  |  |  |  |  |  |  | 
porfimer sodium [PHOTOFRIN] |  |  |  |  | 43% | 35% CR | 35% | 34% | 34% | 8% CR | 8% | 25-30% | 75-80%

— patent US20100130909A1, “TREATMENT OF BARRETT'S ESOPHAGUS USING PHOTODYNAMIC THERAPY” (HEALTH RESEARCH, INC., priority 2007, published 2010)
